Patent EP0554004A2, “Cephem compounds and antibacterial agents” (KATAYAMA SEIYAKUSYO CO. Ltd., priority 1992, dated 1993)

Legend:
[1] = test system: clinically isolated MRSA; assay: Antibacterial potency against clinically isolated MRSA (Test Example 4); format: cell-based, methicillin-resistant Staphylococcus aureus; settings: Staphylococcus aureus, 52 strains of clinically isolated MRSA; for MIC50: concentration inhibiting growth of 50% of the strains (Test Example 4), read-out: MIC50; for MIC90: concentration inhibiting growth of 90% of the strains (Test Example 4), read-out: MIC90
Procedure: 52 strains of clinically isolated MRSA were used, and MIC was determined for each of the strains according to the standard method of the Japan Chemotherapical Society as in Test Example 1. The minimum growth inhibitory concentration which inhibited growth of 50% of the strains tested was expressed as MIC50 (µg/ml), and the minimum growth inhibitory concentration which inhibited growth of 90% of the strains was expressed as MIC90 (µg/ml).
MIC 50 and MIC 90 were determined for each of the 52 strains of clinically isolated MRSA according to the same method as used in Test Example 2.
VCM (vancomycin) was used as control agent.

[2] = test system: B. subtilis ATCC6633; assay: MIC against standard strains (Test Example 3); format: cell-based; settings: Bacillus subtilis; B. subtilis ATCC6633 (Test Example 3); read-out: MIC
Procedure: (§1) By using each test strain cultured overnight at 37°C in a Muller-Hinton broth, there was prepared a bacterial solution with a bacterial cell population of 1 x 10^6 CFU/mi of the same bouillon. The bacterial solution was inoculated into the Muller-Hinton agar media each containing respectively one test agent and, after overnight incubation at 37°C, the minimum concentration that inhibited growth of the bacteria was determined and shown as MIC also in Table 1.
(§2) The minimum growth inhibitory concentration was determined for each of the 21 standard strains shown in Table 3, according to the same method as used in Test Example 1.
(§3) In the test, FMOX (flomoxef), CTM (cefotiam) and CEZ (cefazolin) were used as control agents.

[3] = test system: K. pneumoniae IFO3317; assay: MIC against standard strains (Test Example 3); format: cell-based; settings: Klebsiella pneumoniae; K. pneumoniae IFO3317 (Test Example 3); read-out: MIC
Procedure: as §1, §2, §3

[4] = test system: S. aureus 167; assay: MIC against standard strains (Test Example 3); format: cell-based; settings: Staphylococcus aureus; S. aureus 167 (MRSA) (Test Example 3); read-out: MIC
Procedure: as §1, §2, §3

[5] = test system: S. aureus 209p JC-1; assay: MIC against standard strains (Test Example 3); format: cell-based; settings: Staphylococcus aureus; S. aureus 209p JC-1 (Test Example 3); read-out: MIC
Procedure: as §1, §2, §3

[6] = test system: C. freundii ATCC8090; assay: MIC against standard strains (Test Example 3); format: cell-based; settings: Citrobacter freundii; C. freundii ATCC8090 (Test Example 3); read-out: MIC
Procedure: as §1, §2, §3

[7] = test system: K. pneumoniae No. 42; assay: MIC against standard strains (Test Example 3); format: cell-based; settings: Klebsiella pneumoniae; K. pneumoniae No. 42 (Test Example 3); read-out: MIC
Procedure: as §1, §2, §3

[8] = test system: E. coli NIHJ JC-2; assay: MIC against standard strains (Test Example 3); format: cell-based; settings: Escherichia coli, NIHJJC2; E. coli NIHJ JC-2 (Test Example 3); read-out: MIC
Procedure: as §1, §2, §3

[9] = test system: P. vulugaris OX-19; assay: MIC against standard strains (Test Example 3); format: cell-based; settings: P. vulugaris OX-19 (Test Example 3); read-out: MIC
Procedure: as §1, §2, §3

[10] = test system: P. mirabilis IFO3849; assay: MIC against standard strains (Test Example 3); format: cell-based; settings: Proteus mirabilis; P. mirabilis IFO3849 (Test Example 3); read-out: MIC
Procedure: as §1, §2, §3

[11] = test system: A. faecalis ATCC3750; assay: MIC against standard strains (Test Example 3); format: cell-based; settings: Alcaligenes faecalis; A. faecalis ATCC3750 (Test Example 3); read-out: MIC
Procedure: as §1, §2, §3

[12] = test system: A. calcoaceticos T59; assay: MIC against standard strains (Test Example 3); format: cell-based; settings: A. calcoaceticos T59 (Test Example 3); read-out: MIC
Procedure: as §1, §2, §3

[13] = test system: S. marcescens IAM1184; assay: MIC against standard strains (Test Example 3); format: cell-based; settings: Serratia marcescens; S. marcescens IAM1184 (Test Example 3); read-out: MIC
Procedure: as §1, §2, §3

[14] = test system: S. aureus 195; assay: MIC against standard strains (Test Example 3); format: cell-based; settings: Staphylococcus aureus; S. aureus 195 (MRSA) (Test Example 3); read-out: MIC
Procedure: as §1, §2, §3

[15] = test system: S. epidemidis IAM1296; assay: MIC against standard strains (Test Example 3); format: cell-based; settings: S. epidemidis IAM1296 (Test Example 3); read-out: MIC
Procedure: as §1, §2, §3

[16] = test system: M. Morganii IFO3848; assay: MIC against standard strains (Test Example 3); format: cell-based; settings: Morganella morganii; M. Morganii IFO3848 (Test Example 3); read-out: MIC
Procedure: as §1, §2, §3

[17] = test system: P. aeruginosa NCTC10490; assay: MIC against standard strains (Test Example 3); format: cell-based; settings: Pseudomonas aeruginosa; P. aeruginosa NCTC10490 (Test Example 3); read-out: MIC
Procedure: as §1, §2, §3

[18] = test system: E. cloacae ATCC13407; assay: MIC against standard strains (Test Example 3); format: cell-based; settings: Enterobacter cloacae; E. cloacae ATCC13407 (Test Example 3); read-out: MIC
Procedure: as §1, §2, §3

[19] = test system: E. coli CSH2 (RK1); assay: MIC against standard strains (Test Example 3); format: cell-based; settings: Escherichia coli
Procedure: as §1, §2, §3

[20] = test system: E. coli CSH2 (RE45); assay: MIC against standard strains (Test Example 3); format: cell-based; settings: Escherichia coli
Procedure: as §1, §2, §3

[21] = test system: M. luteus ATCC 9341; assay: MIC against standard strains (Test Example 3); format: cell-based; settings: Micrococcus luteus, ATCC9341; M. luteus ATCC 9341 (Test Example 3); read-out: MIC
Procedure: as §1, §2, §3

[22] = test system: S. aureus Smith; assay: MIC against standard strains (Test Example 3); format: cell-based; settings: Staphylococcus aureus; S. aureus Smith (Test Example 3); read-out: MIC
Procedure: as §1, §2, §3

Row | SMILES | MIC50 [1] | MIC90 [1] | MIC [2] | MIC [3] | MIC [4] | MIC [5] | MIC [6] | MIC [7] | MIC [8] | MIC [9] | MIC [10] | MIC [11] | MIC [12] | MIC [13] | MIC [14] | MIC [15] | MIC [16] | MIC [17] | MIC [18] | MIC [19] | also measured
1 | CNc1nc(-c2ccc[n+](CC3=C(C(=O)[O-])N4C(=O)[C@@H](NC(=O)/C(=N\O)c5csc(N)n5)[C@H]4SC3)c2)cs1 [Compound (10), 7β-[2-(2-aminothiazol-4-yl)-2-syn-hydroxyiminoacetamido)-3-[[3-(2-methylaminothiazol-4-yl)-1-pyridinio]methyl]-3-cephem-4-carboxylic acid chloride] | 4.04 µg/mL | 8.37 µg/mL | 0.39 µg/mL | 0.39 µg/mL | 12.5 µg/mL | 0.39 µg/mL | 1.56 µg/mL | 6.25 µg/mL | 1.56 µg/mL | 0.39 µg/mL | 3.13 µg/mL | 6.25 µg/mL | 50 µg/mL | 3.13 µg/mL | 3.13 µg/mL | 0.2 µg/mL | 0.2 µg/mL | 25 µg/mL | 12.5 µg/mL | 3.13 µg/mL | MIC [20]: 1.56 µg/mL; MIC [21]: 0.1 µg/mL; MIC [22]: 0.78 µg/mL
2 | Cc1nc(-c2ccc[n+](CC3=C(C(=O)[O-])N4C(=O)[C@@H](NC(=O)/C(=N\O)c5csc(N)n5)[C@H]4SC3)c2)cs1 [Compound (11), 7β-[2-(2-aminothiazol-4-yl)-2-syn-hydroxyiminoacetamido]-3-[[3-(2-methylthiazol-4-yl)-I-pyridinio]methyl]-3-cephem-4-carboxylic acid chloride] | 1.85 µg/mL | 3.04 µg/mL | 0.2 µg/mL | 0.2 µg/mL | 3.13 µg/mL | 0.2 µg/mL | 0.39 µg/mL | 0.78 µg/mL | 0.39 µg/mL | 0.2 µg/mL | 0.78 µg/mL | 3.13 µg/mL | 25 µg/mL | 0.39 µg/mL | 1.56 µg/mL | 0.1 µg/mL | 0.1 µg/mL | 6.25 µg/mL | 3.13 µg/mL | 0.78 µg/mL | MIC [20]: 0.39 µg/mL; MIC [21]: 0.05 µg/mL; MIC [22]: 0.39 µg/mL
3 | CNc1nc(-c2cc[n+](CC3=C(C(=O)[O-])N4C(=O)[C@@H](NC(=O)/C(=N\O)c5csc(N)n5)[C@H]4SC3)cc2)cs1 [Compound (12), 7β-[2-(2-aminothiazol-4-yl)-2-syn-hydroxyiminoacetamido]-3-[[4-(2-methylaminothiazol-4-yl)-1-pyridinio]methyl]-3-cephem-4-carboxylic acid chloride] | 1.86 µg/mL | 4.61 µg/mL | 0.2 µg/mL | 0.1 µg/mL | 5.25 µg/mL | 0.39 µg/mL | 0.39 µg/mL | 0.78 µg/mL | 0.2 µg/mL | 0.1 µg/mL | 0.78 µg/mL | 1.56 µg/mL | 50 µg/mL | 0.78 µg/mL | 3.13 µg/mL | 0.2 µg/mL | 0.05 µg/mL | 12.5 µg/mL | 1.56 µg/mL | 0.39 µg/mL | MIC [20]: 0.2 µg/mL; MIC [21]: 0.05 µg/mL; MIC [22]: 0.39 µg/mL
4 | Cc1nc(-c2cc[n+](CC3=C(C(=O)[O-])N4C(=O)[C@@H](NC(=O)/C(=N\O)c5csc(N)n5)[C@H]4SC3)cc2)cs1 [Compound (13), 7β-[2-(2-aminothiazol-4-yl)-2-syn-hydroxyiminoacetamido]-3-[[4-(2-methylthiazol-4-yl)-1-pyridinio]methyl]-3-cephem-4-carboxylic acid chloride] | 2.21 µg/mL | 5.51 µg/mL | 0.2 µg/mL | 0.1 µg/mL | 6.25 µg/mL | 0.2 µg/mL | 0.2 µg/mL | 0.78 µg/mL | 0.2 µg/mL | 0.2 µg/mL | 0.39 µg/mL | 1.56 µg/mL | 50 µg/mL | 0.39 µg/mL | 3.13 µg/mL | 0.2 µg/mL | 0.05 µg/mL | 12.5 µg/mL | 0.78 µg/mL | 0.2 µg/mL | MIC [20]: 0.2 µg/mL; MIC [21]: 0.05 µg/mL; MIC [22]: 0.39 µg/mL
5 | CCN(CC)C(=O)c1ccc[n+](CC2=C(C(=O)[O-])N3C(=O)[C@@H](NC(=O)/C(=N\O)c4csc(N)n4)[C@H]3SC2)c1 [Compound (14), 7β-[2-(2-aminothiazol-4-yl)-2-syn-hydroxyiminoacetamido]-3-[(3-N,N-diethylcarbamoyl-I-pyridinio)methyl]-3-cephem-4-carboxylic acid chloride] | 6.77 µg/mL | 11.8 µg/mL | 0.39 µg/mL | 0.78 µg/mL | 12.5 µg/mL | 0.78 µg/mL | 0.78 µg/mL | 3.13 µg/mL | 0.78 µg/mL | 0.78 µg/mL | 1.56 µg/mL | 3.13 µg/mL | 12.5 µg/mL | 0.78 µg/mL | 6.25 µg/mL | 0.39 µg/mL | 0.39 µg/mL | 6.25 µg/mL | 3.13 µg/mL | 3.13 µg/mL | MIC [20]: 0.78 µg/mL; MIC [21]: 0.2 µg/mL; MIC [22]: 0.78 µg/mL
